The values that follow come from patent US20110207697A1, “XANTHOHUMOL COMPOSITIONS AND METHODS FOR TREATING SKIN DISEASES OR DISORDERS” (Betal, LLC, priority 2008, published 2011).

Converted amounts (≈) assume the structure as drawn. Read-outs that look alike come from different tables or passages of the source.

A short description of one data set: SOD antioxidant assay. To be noted: FIG. 2 radar chart. How it is done:
[table] […] The SOAC scores are not included in this figure; ORAC values used are the sum of lipophilic and hydrophilic results. For each assay category, scaling was made logarithmic so that the plot on the chart resembles the associated rating. […] The larger the spatial area, the higher the overall antioxidative capacity. […] Both hydrophilic and lipophilic oxygen radical absorbance capacity (ORAC) assays were carried out at Brunswick Laboratory (Wareham, Mass.) based on the modified ORACfl method reported by Ou et al. (2001 J. Agric. Food Chem. 49: 4619-4626, 2002 J. Agr. Food Chem. 50: 3122-3128). Trolox, a water-soluble vitamin E analog, was used as the calibration standard. The data are expressed as mmole of Trolox equivalents per gram (mmol TE/g). The acceptable precision of the ORAC assay is a 15% relative standard deviation. […] Hydroxyl radical ORAC (HOR-AC) is expressed as mmole caffeic acid equivalent per gram (mmol CAE/g). […] The peroxyl nitrite ORAC (NORAC) result is expressed as mmol TE/g. Alpha-tocopherol (vitamin E) was used as the calibration standard, and the singlet oxygen absorbance capacity (SOAC) result is expressed as mmole a-tocopherol equivalent (mmol VtE) per gram (Aubry et al. 1989). […] Radical-scavenging activity was measured by the change in absorbance at 517 nm with the DPPH result expressed as mmol TE/g. […] The FRAP result is expressed as mmol TE/g (Ou et al. 2002b). […]

Data set [1] in a line: Hydrophilic oxygen radical absorbance capacity (ORAC-H). To be noted: water-soluble antioxidant capacity; expressed as mmol TE/g; — = No activity detected. The source says:
(§1) Thus the ORAC method has become a widely used method for assessing antioxidant capacity in biological samples and foods. However, because of its inability to measure both hydrophilic and lipophilic antioxidants, the method has its limitations. An ORAC method for lipophilic antioxidants was further developed and validated using fluorescein as the fluorescent probe (Prior et al. 2003 J. Agric. Food Chem. 51: 3273-3279). […] In the present work, the ORAC value is expressed as the sum of values of both the water-soluble and fat-soluble parts. […] Both hydrophilic and lipophilic oxygen radical absorbance capacity (ORAC) assays were carried out at Brunswick Laboratory (Wareham, Mass.) based on the modified ORACfl method reported by Ou et al. (2001 J. Agric. Food Chem. 49: 4619-4626, 2002 J. Agr. Food Chem. 50: 3122-3128). Trolox, a water-soluble vitamin E analog, was used as the calibration standard. The data are expressed as mmole of Trolox equivalents per gram (mmol TE/g). […] Hydroxyl radical ORAC (HOR-AC) is expressed as mmole caffeic acid equivalent per gram (mmol CAE/g). […] The peroxyl nitrite ORAC (NORAC) result is expressed as mmol TE/g. […] Radical-scavenging activity was measured by the change in absorbance at 517 nm with the DPPH result expressed as mmol TE/g. […] The FRAP result is expressed as mmol TE/g (Ou et al. 2002b).

Another data set relates to S. pyogenes (ATCC 14289). The data set is described as follows: Antimicrobial susceptibility, broth dilution (MIC/MBC). The data set is classed as cell-based, Streptococcus pyogenes. How it is done:
(§2) The antibacterial effects of seven hops components against five different strains of bacteria involved in primary or secondary skin and soft tissue infections was evaluated, with broth dilution methods. […] Antimicrobial susceptibility testing was performed using a broth dilution method. Gentamicin or ampicillin was used as a control to verify the methodology. A stock solution (20 mg/ml) of the test substance (or vehicle control) was prepared in dimethyl sulfoxide. Serial dilution was done in microwell plates. Reinforced Clostridial Medium was used for P. acnes (ATCC 6919). Three hundreds […] of the test substance was added to the test tube containing P. acnes (10^5 CFU/ml) in 2.7 ml of cultures grown under anaerobic conditions. Mueller-Hinston Broth suitable for culturing S. epidermidis (ATCC 12228), K. rhizophila (formerly M. luteus) (ATCC 9341), and S. aureus (ATCC […]), and Brain Heart Infusion Broth suitable for culturing S. pyogenes (ATCC 14289) were used. A total of […] of the test substance was added to the test tube containing the other microorganisms (10^5CFU/ml) in 0.9 ml of cultures grown under controlled conditions. […] Samples from those tubes that scored positive was plated onto an agar plate and incubated under controlled conditions.
Background: Dilution methods test growth across graded concentrations, often in twofold steps.

Data set [2] can be described thus: Lipophilic oxygen radical absorbance capacity (ORAC-L). To be noted: lipid soluble antioxidant capacity; expressed as mmol TE/g; — = No activity detected.
Text: as §1

The subject of data set [3] is S. epidermidis (ATCC 12228). Kind of data set: Antimicrobial susceptibility, broth dilution (MIC/MBC). The class given is cell-based, Staphylococcus epidermidis. How it is done:
as §2

The nature of data set [4]: Water solubility of xanthohumol (HPLC of supernatant). To be noted: thermodynamic from solid, 1 mg xanthohumol per ml water, sonicated 5 minutes. The data set is classed as physicochemical. How it is done:
Pure xanthohumol (XN), Xanohop A, xanthohumol-gamma cyclodextrin (XN/gCD), and xanthohumol-beta cyclodextrin (XN/bCD) were dispersed in water at a ratio of 1 mg xanthohumol per ml of water. After being sonicated for 5 minutes, the resultant suspensions were centrifuged at 3,000 rpm for 2 minutes or 12,000 rpm for 3 minutes. The supernatants thus formed were collected, diluted (1:10) with methanol, and then injected into HPLC to determine xanthohumol concentrations.

The test system of another data set is S. aureus (ATCC 6538P). The data set is described as follows: Antimicrobial susceptibility, broth dilution (MIC/MBC). The class given is cell-based, Staphylococcus aureus. How it is done:
as §2

As a reminder, the MIC is the smallest concentration in the dilution series that meets the test's criterion for growth inhibition. The low end stands for inhibition by little substance, the high end for a need for much substance. What is called solubility is the dissolved amount per volume that the medium holds. Consider `COc1cc(O)c(CC=C(C)C)c(O)c1C(=O)/C=C/c1ccc(O)cc1` [Xanthohumol (7), 3′-[3,3-dimethylallyl]-2′,4′,4-trihydroxy-6′-methoxychalcone], for which the “quenching activity against superoxide (SOD), rank among hop components” value in the data set “SOD antioxidant assay” was “highest quenching activity”. Further, the “ORAC-H (Trolox equivalent)” value in data set [1] was 2.1 Trolox equivalent. The MBC result against S. pyogenes (ATCC 14289) was “[3] g/mL”; in data set [3] it was “[10] g/mL”; against S. aureus (ATCC 6538P), “[100] g/mL”. For the same molecule, the MIC with S. pyogenes (ATCC 14289) (1 day) stood at 1 µg/mL (≈ 2.82 µM); in data set [3] (1 day) it was 3 µg/mL (≈ 8.46 µM); in data set [3] (Staphylococcus epidermidis, ATCC12228) it was 1000 µg/mL (≈ 2820 µM); in the data set on S. aureus (ATCC 6538P) (1 day) it was 1 µg/mL (≈ 2.82 µM); in the data set with S. aureus (ATCC 6538P) (Staphylococcus aureus, ATCC6538P), 1000 µg/mL (≈ 2820 µM). Besides, the “ORAC-L (Trolox equivalent)” value in data set [2] is given as 2.1 Trolox equivalent. The solubility at 5 min is 4 µg/mL (≈ 11.3 µM) in data set [4] (centrifuged 3,000 rpm 2 minutes, read-out: Water-solubility of XN (3,000 rpm)) and 2 µg/mL (≈ 5.64 µM) in data set [4] (centrifuged 12,000 rpm 3 minutes, read-out: Water-solubility of XN (12,000 rpm)).
